One assay has as its system NFATc1, NFATc2, NFATc3. Put plainly: Thymocytes ex vivo with CsA or ionomycin, NFAT western blot. The format is cell-based, mouse. Conditions: unstimulated thymocytes ex vivo, 1 μg/ml, 60 minutes. (In general: Immunoblotting shows a protein as a band on a membrane.)
The next assay relates to NFAT2. Put plainly: ICN1 leukemic cells in culture with CsA or ionomycin, NFAT2 western blot. It counts as cell-based, mouse. The note with it: ICN1 leukemic cells maintained in culture for 60 minutes. The method, then: Phosphorylated and de-phosphorylated isoforms are indicated by coloured arrows.
Leukemia-derived primary cells and leukemia cell lines (TEL-JAK2, ICN1 and ERP15-14) were maintained in RPMI 1640 supplemented with 10% foetal calf serum, 100 U/ml penicillin, 100 μg/ml streptomycin, 2 mM glutamine (all from Life Technologies) and […] 2-βmercaptoethanol (Sigma).
Total cellular extracts prepared from cells obtained directly from diseased animals or control littermates or harvested at the indicated times following culture, were resolved by SDS-PAGE and subjected to immunoblot analysis with the indicated antibody (Ab). The NFAT1(sc-7296), NFAT2 (sc-7294), NFAT4 (sc-8321), STAT5 (C-17; sc-835) antibodies were purchased from Santa Cruz Biotechnology. The phosphotyrosine-STAT5 antibody (05-495) was purchased from Upstate Biotechnology. The pan-NFAT Ab (796) was kindly provided by Dr. Nancy Rice.

SMILES strings stand for the structures.

Consider `C[C@H](CCC(=O)O)C[C@H](C)C[C@H](C)C(=O)/C=C(\O)[C@H](C)C[C@H](C)C/C=C/[C@@H](C)[C@@H](O)[C@@H](C)[C@@H](O)C[C@@H]1CC[C@@](C)([C@H]2CC[C@@](C)([C@@H](C)O)O2)O1` [ionomycin], for which the “NFATc1, NFATc2, NFATc3 phosphorylation” value in the assay with NFATc1, NFATc2, NFATc3 is “fully dephosphorylated”. The “NFAT2 isoform migration (phosphorylation)” value with NFAT2 was “indistinguishable from that observed in ICN1 non-treated leukemic cells”.

These data come from US20080293759A1, “Method for Treating Cancer Based on the Modulation of Calcineurin” (Centre National De La Recherche, priority 2005, published 2008).
